Laboratory results taken from patent US9446061B2, “Composition containing antibiotics and lysophosphatidylcholine for boosting immunity or treatment of bacterial infections” (priority 2011, dated 2016).
Marks after values point to notes of the source that are not given here.

Tests used:
blood WBC = assay: Blood WBC numbers and differential counts in CPA-treated mice; assay type: in vivo, ICR mice; details: LPC 1, DW286 0.5, Mix 0.75 mg/kg
Description: Blood were collected at sacrifice of CPA-treated model from vena cava and total blood leukocyte numbers were calculated using counting chamber, diluting pipette and Türk solution as dilution solution. All numbers were calculated as ×10^3/mm^3. In addition, cell numbers of lymphocytes, eosinophils, neutrophils, monocytes and basophils were calculated among 100 total leukocytes in smear blood samples stained with Giemsa.

[1] = Body weight of CPA-treated mice (Example 9); s.c. 4 times 12-hr intervals from 24 hrs after last CPA-dosing; details: LPC 1, DW286 0.5, Mix 0.75 mg/kg
Description: In the INTACT control group, an equal volume of physiological saline was dosed instead of CPA by the same method.
In Intact control animals, equal volume of saline was only dosed instead of CPA with same methods.
(§5) In CPA-CLP model, body weight and mortalities were measured once a day for 5 days with automatic electronic balances (Sartorius Co., Ltd., USA), once a day for 2 days in CPA-treated model. All animals were overnight fasted at CPA dosing, CLP or initial dosing to reduce differences from feeding. In addition, body weight gains were calculated as follows:
CPA-Treat Model: Body weight at sacrifice—at initial dosing (2 days)
To find suitable dosing regime of LPC and DW286AA combination during the development of new therapeutic agents against sepsis, evaluation was conducted by using CPA-CLP— and CPA-induced immunosuppressive mice. […] Then, mortalities, changes in thymus and spleen weights, changes in white blood cell (WBC) number, and changes in thymic and splenic CD3+, CD4+, CD8+, and TNF-α+ cell numbers, were evaluated together with changes in bone marrow polychromatic erythrocytes contain micronuclei (MNPCE) number.
(§6) Appropriate doses of candidate materials were dissolved in 5% human serum albumin, and subcutaneously dosed at 10 ml/kg (of body weight), 4 times 12-hr intervals from 6 hrs after CLP or 24 hrs after last CPA-dosing, respectively. In the INTACT, CPA, or CPA-CLP control groups, an equal volume of 5% human serum albumin was dosed by the same procedure.

[2] = test system: splenic CD3+, CD4+, CD8+ and TNF-α+ cells; assay: Immunohistochemistry of spleen in CPA-treated mice; assay type: in vivo, ICR mice
Description: (§1) After deparraffinized, CD3 epitope retrievals were conducted in 10 mM Tris-1 mM EDTA Buffer (pH 9.0), CD4 and CD8 in 1 mM EDTA Buffer (pH 8.0), and TNF-α in 10 mM Citrate Buffer (pH 6.0) as previous methods. Primary anti-antibodies used in the invention were as following table.
(§2) The water bath with a staining dish, containing a buffer, was preheated until the temperature reached 95-100. The staining dish was placed at room temperature and the slides were cooled for 20 minutes. After epitope retrivals, sections were immunostained as following steps
(§3) First, the sections were incubated with methanol and 0.3% H2O2 for 30 min to block endogenous peroxidase activity at room temperature, and then rinsed three times in 0.01M phosphate buffered saline (PBS; pH 7.2) for 3 times. Then, the sections were incubated with the normal horse serum blocking solution (Vector Lab. Inc., CA, USA., dilution 1:100) for 1 hr at room temperature in a humidity chamber, to block non-specific binding of immunoglobulin, and then rinsed three times in 0.01M PBS. The sections were incubated with four types of primary antisera for 12 hrs at 4 in a humidity chamber, and then rinsed three times in 0.01M PBS. The sections were incubated with universal biotinylated secondary antibody for 1 hr at room temperature in a humidity chamber, and then rinsed three times in 0.01M PBS. The sections were incubated with ABC reagents (Vectastain Elite ABC Kit, Vector Lab. Inc., CA, USA. Dilution 1:50) for 1 hr at room temperature in a humidity chamber, and then rinsed three times in 0.01M PBS. The sections were incubated in the peroxidase substrate kit (Vector Lab. Inc., CA) for 30 seconds at room temperature, and then rinsed three times in 0.01M PBS. The sections were counterstained with the Mayer's hematoxylin solution, and then rinsed in running tap water for 30 minutes. The sections were dehydrated through 95% ethanol for 2 min and 100% ethanol for […], and then rinsed in xylene for 2 hrs. After that, the sections were observed using a cover slip with permanent mounting medium under the light microscope (Zeiss, Germany).
(§4) Histomorphometry—Among 1000 splenic or thymic cells, the numbers (N) of immunoreactive cells (CD3+, CD4+, CD8+, and TNF-α+) were observed as N/1000 splenocytes or thymocytes using automated image analysis. In thymus, the counts were conducted in the both cortex and medulla separately.

[3] = test system: CPA-induced immunosuppressive mice; assay: Thymus and spleen organ weights in CPA-treated mice; assay type: in vivo, ICR mice; details: LPC 1, DW286 0.5, Mix 0.75 mg/kg
Description: At sacrifice of CPA-treated model, the wet-weights of spleen and thymus were measured and regarded as absolute weight and then relative organ weight (% of body weight) was calculated as follow:
=[(Absolute organ weights/Body weight at sacrifice individual)×100]

[4] = test system: thymic CD3+, CD4+, CD8+ and TNF-α+ cells; assay: Immunohistochemistry of thymus (cortex and medulla) in CPA-treated mice; assay type: in vivo, ICR mice
Description: as §1, §2, §3, §4

[5] = test system: CPA-CLP sepsis mouse model; assay: Combination effects of LPC and antibiotics (colistin, tobramycin, fusidin) in CPA-CLP sepsis mouse model (SEP013); single i.v. 6 hrs after CLP; assay type: in vivo, ICR mice; details: mpk: LPC 5, DW286aa 5, Colistin 5, Tobra 4, Fusidin 80, LPC + Colistin 5 + 5, LPC + Tobra 5 + 4, LPC + Fusidin 5 + 80
Description: CPA is well known as an immunosuppressive agent. […] Then, the abdomen was closed following the general procedure.
Then, body weight and mortality changes were observed.

[6] = Body weight of CPA-CLP mice (Example 9); details: LPC 1, DW286 0.5, Mix 0.75 mg/kg
Description: as §5
CPA-CLP Model: Body weight at sacrifice—at CLP(5 days)
Then, mortalities, changes in thymus and spleen weights, changes in white blood cell (WBC) number, and changes in thymic and splenic CD3+, CD4+, CD8+, and TNF-α+ cell numbers, were evaluated together with changes in bone marrow polychromatic erythrocytes contain micronuclei (MNPCE) number.
as §6

[7] = At First CPA dosing (overnight fasted)
[8] = LPC 1, DW286 0.5, Mix 0.75 mg/kg
[9] = spleen, CPA-treated mice, Mean ± S.D., n = 9
[10] = thymus cortex, CPA-treated mice, Mean ± S.D., n = 9
[11] = thymus medulla, CPA-treated mice, Mean ± S.D., n = 9

Lysophosphatidylcholine [LPC]
blood total WBC numbers, change compared to CPA control (blood WBC): 25.00%
ratio of lymphocytes, change compared to CPA control (blood WBC): 268.78%
ratio of monocytes, change compared to CPA control (blood WBC): −85.27%
ratio of neutrophils, change compared to CPA control (blood WBC): −51.07%
Total WBC (blood WBC; blood at sacrifice): 0.58 ± 0.14 ×10^3/mm^3
WBC differentials: Basophils (blood WBC; blood at sacrifice): 2.33 ± 1.22*^,## %
WBC differentials: Eosinophils (blood WBC; blood at sacrifice): 1.33 ± 1.12 %
WBC differentials: Lymphocytes (blood WBC; blood at sacrifice): 70.22 ± 9.90 %
WBC differentials: Monocytes (blood WBC; blood at sacrifice): 5.56 ± 3.13 %
WBC differentials: Neutrophils (blood WBC; blood at sacrifice): 20.56 ± 8.76 %
Body weight ([1]; 1 day after second CPA-dosing): 36.54 ± 1.72 g
Body weight ([1]; 2 days after second CPA-dosing): 37.04 ± 1.47 g
Body weight ([1]; At Dosing (overnight fasted)): 32.08 ± 1.47 g
Body weight [1, 7]: 36.58 ± 1.36 g
Body weight gains during 2 days after dosing [1]: 4.97 ± 1.67 g
body weight (gains) change compared to the CPA control group [1]: −12.35%
numbers of splenic CD3+ cells, change compared to CPA control [2, 8]: 18.29%
numbers of splenic CD4+ cells, change compared to CPA control [2, 8]: 136.54%
numbers of splenic CD8+ cells, change compared to CPA control [2, 8]: 72.89%
splenic TNF-α+ cells, change compared to CPA control [2, 8]: 36.75%
CD3+ cells, Spleen (IHC-Histomorphometry) [2, 9]: 76.89 ± 6.23*^,## N/1000 splenocytes or thymocytes
CD4+ cells, Spleen (IHC-Histomorphometry) [2, 9]: 109.33 ± 20.77*^,# N/1000 splenocytes or thymocytes
CD8+ cells, Spleen (IHC-Histomorphometry) [2, 9]: 88.56 ± 11.18*^,# N/1000 splenocytes or thymocytes
TNF-α+ cells, Spleen (IHC-Histomorphometry) [2, 9]: 63.67 ± 9.10*^,# N/1000 splenocytes or thymocytes
Spleen weight, Relative ([3]; % of body weight at sacrifice): 0.178 ± 0.018*^,# %
Thymus weight, Relative ([3]; % of body weight at sacrifice): 0.099 ± 0.017 %
absolute splenic weights, change compared to CPA control [3]: 35.62%
absolute thymic weights, change compared to CPA control [3]: 13.31%
relative splenic weights, change compared to CPA control [3]: 40.69%
relative thymic weights, change compared to CPA control [3]: 17.56%
Spleen weight, Absolute ([3]; at sacrifice): 0.066 ± 0.007*^,# g
Thymus weight, Absolute ([3]; at sacrifice): 0.037 ± 0.007 g
numbers of thymic cortex CD3+ cells, change compared to CPA control [4, 8]: 328.69%
numbers of thymic cortex CD4+ cells, change compared to CPA control [4, 8]: 408.70%
numbers of thymic cortex CD8+ cells, change compared to CPA control [4, 8]: 11.11%
numbers of thymic medulla CD3+ cells, change compared to CPA control [4, 8]: 12466.67%
numbers of thymic medulla CD4+ cells, change compared to CPA control [4, 8]: −9.09%
numbers of thymic medulla CD8+ cells, change compared to CPA control [4, 8]: −5.56%
thymic cortex TNF-α+ cells, change compared to CPA control [4, 8]: 65.22%
thymic medulla TNF-α+ cells, change compared to CPA control [4, 8]: 133.33%
CD3+ cells, Thymus: Cortex (IHC-Histomorphometry) [4, 10]: 780.22 ± 85.78 N/1000 splenocytes or thymocytes
CD4+ cells, Thymus: Cortex (IHC-Histomorphometry) [4, 10]: 13.00 ± 2.45*^,# N/1000 splenocytes or thymocytes
CD8+ cells, Thymus: Cortex (IHC-Histomorphometry) [4, 10]: 3.33 ± 1.22 N/1000 splenocytes or thymocytes
TNF-α+ cells, Thymus: Cortex (IHC-Histomorphometry) [4, 10]: 4.22 ± 1.20 N/1000 splenocytes or thymocytes
CD3+ cells, Thymus: Medulla (IHC-Histomorphometry) [4, 11]: 41.89 ± 10.23*^,# N/1000 splenocytes or thymocytes
CD4+ cells, Thymus: Medulla (IHC-Histomorphometry) [4, 11]: 2.22 ± 0.97 N/1000 splenocytes or thymocytes
CD8+ cells, Thymus: Medulla (IHC-Histomorphometry) [4, 11]: 1.89 ± 0.60 N/1000 splenocytes or thymocytes
TNF-α+ cells, Thymus: Medulla (IHC-Histomorphometry) [4, 11]: 1.33 ± 1.00 N/1000 splenocytes or thymocytes
Mortalities ([5]; 1st CPA treat): 0
Survivalities ([5]; 1st CPA treat): 100%
Mortalities ([5]; 2nd CPA treat): 0
Survivalities ([5]; 2nd CPA treat): 100%
Mortalities ([5]; At CLP (day 0)): 0
Survivalities ([5]; At CLP (day 0)): 100%
Mortalities ([5]; Day 1): 2
Survivalities ([5]; Day 1): 80%
Mortalities ([5]; Day 2): 5
Survivalities ([5]; Day 2): 30%
Mortalities ([5]; Day 3): 2
Survivalities ([5]; Day 3): 10%
Mortalities ([5]; Total): 9
Survivalities ([5]; Total): 10%
Body weight ([6]; 1 day after CLP): 30.10 ± 1.23 g
Body weight ([6]; 2 days after CLP): 29.47 ± 1.46 g
Body weight ([6]; 3 days after CLP): 31.40 ± 0.28 g
Body weight ([6]; At CLP (overnight fasted)): 32.98 ± 1.65 g
Body weight [6, 7]: 34.53 ± 1.24 g
